Measurements taken from patent US9766236B2, “Taste receptor internalization assay” (PepsiCo, Inc., priority 2013, dated 2017).
Residues, ends and D or L forms follow the SMILES beside them.

Key:
GLUT4 = biological target: T1, GLUT4 (Homo sapiens, UniProt P14672); assay: High-content imaging ring assay for GLUT4 internalization in NCI-H716 cells; assay type: cell-based; details: endogenous GLUT4, FIG. 4B
T1 construct: we tested internalization of endogenous GLUT4 in NCI-H716 cells; endogenous in cells; host or cells: NCI-H716 (ATCC CCL-251)
T1 sequence (P14672 1-509): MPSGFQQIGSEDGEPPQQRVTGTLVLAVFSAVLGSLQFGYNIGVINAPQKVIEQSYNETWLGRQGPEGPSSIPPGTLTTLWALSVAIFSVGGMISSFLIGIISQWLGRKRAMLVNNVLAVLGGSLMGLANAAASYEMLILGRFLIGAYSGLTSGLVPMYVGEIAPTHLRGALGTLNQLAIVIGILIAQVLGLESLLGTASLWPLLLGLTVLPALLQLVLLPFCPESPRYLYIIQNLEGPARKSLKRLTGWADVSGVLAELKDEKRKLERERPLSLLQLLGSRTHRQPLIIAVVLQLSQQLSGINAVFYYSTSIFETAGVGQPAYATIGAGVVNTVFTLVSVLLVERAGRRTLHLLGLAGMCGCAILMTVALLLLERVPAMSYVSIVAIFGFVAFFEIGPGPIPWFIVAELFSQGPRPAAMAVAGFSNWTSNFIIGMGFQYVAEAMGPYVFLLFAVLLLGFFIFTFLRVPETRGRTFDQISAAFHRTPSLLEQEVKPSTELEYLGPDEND
Source text: The internalization assay disclosed herein, also called a “ring assay,” detects localization of receptors using antibodies specific for the receptors. A first detectable label, specific for nucleic acid (e.g., DAPI, Hoechst 33342, DRAQ5, DRAQ7, DRAQ9), is used to label cell nuclei; this labeling provides information such as the number of cells in a field and differentiates between the nuclear (e.g., DAPI-positive) and cytoplasmic (e.g., DAPI-negative) compartments. Antibodies which specifically bind to a taste receptor are used in conjunction with secondary antibodies conjugated with a second detectable label which can be differentiated from the first detectable label (e.g., FITC, TRITC, Cy3, Cy5, Alexa 350, 488, 546, 555, 568, 594, 633, 647). Diffuse circle staining is observed in the absence of a stimulus (e.g., in the presence of buffer alone). In the presence of a stimulus, however, a “ring” of internalized receptors is visualized. In some embodiments, ring-positive cells are calculated by correlation coefficient for pixel values of the nuclear and receptor signals. The extent of internalization can be expressed as percentage (mean±SD) of cells showing a continuous ring staining from multiple (e.g., quadruplicate) data points.
To explore further the role of GLUT4 in signaling by artificial sweeteners, we tested internalization of endogenous GLUT4 in NCI-H716 cells.

T2R14 = biological target: T2, T2R14 (Homo sapiens, UniProt Q9NYV8); assay: High-content imaging ring assay for T2R14 internalization in NCI-H716 cells; assay type: cell-based; details: compounds used at 10 mM, 37° C., immunofluorescence
T2 construct: These cells express the bitter receptors T2R1, T2R3, T2R4, T2R5, T2R7, T2R8, T2R9, T2R10, T2R13, T2R14; endogenous in cells; host or cells: NCI-H716 (ATCC CCL-251)
T2 sequence (Q9NYV8 1-317): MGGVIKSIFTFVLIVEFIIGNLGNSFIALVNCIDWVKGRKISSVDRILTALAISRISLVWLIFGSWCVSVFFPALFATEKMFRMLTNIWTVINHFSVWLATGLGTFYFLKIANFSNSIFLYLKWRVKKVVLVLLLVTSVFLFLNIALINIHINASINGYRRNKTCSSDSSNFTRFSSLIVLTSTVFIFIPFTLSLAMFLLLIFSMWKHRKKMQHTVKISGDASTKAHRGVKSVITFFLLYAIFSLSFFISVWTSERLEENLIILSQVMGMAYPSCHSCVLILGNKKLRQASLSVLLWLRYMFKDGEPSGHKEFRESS
Source text: The internalization assay disclosed herein, also called a “ring assay,” detects localization of receptors using antibodies specific for the receptors. A first detectable label, specific for nucleic acid (e.g., DAPI, Hoechst 33342, DRAQ5, DRAQ7, DRAQ9), is used to label cell nuclei; this labeling provides information such as the number of cells in a field and differentiates between the nuclear (e.g., DAPI-positive) and cytoplasmic (e.g., DAPI-negative) compartments. Antibodies which specifically bind to a taste receptor are used in conjunction with secondary antibodies conjugated with a second detectable label which can be differentiated from the first detectable label (e.g., FITC, TRITC, Cy3, Cy5, Alexa 350, 488, 546, 555, 568, 594, 633, 647). Diffuse circle staining is observed in the absence of a stimulus (e.g., in the presence of buffer alone). In the presence of a stimulus, however, a “ring” of internalized receptors is visualized. In some embodiments, ring-positive cells are calculated by correlation coefficient for pixel values of the nuclear and receptor signals. The extent of internalization can be expressed as percentage (mean±SD) of cells showing a continuous ring staining from multiple (e.g., quadruplicate) data points. NCI-H716 cell were grown in RPMI1690 media supplemented with 10% fetal bovine serum. Cells were seeded at density of 20,000 cells/well on PDL-coated 384-well plates. […] Alexa 488-conjugated antibodies and Hoechst 33342 were from Life Technology. 20,000 cells in PBS+10% FBS were plated on clear-bottom, PDL-coated, black-wall 384-well plates suitable for HCA imaging. For […] studies compounds were added to the cells. Stock solutions of all compounds were diluted in dimethyl sulfoxide (DMSO) and used at 10 mM. Control groups of cells also received DMSO (0.1%) in medium. NCI-H716 cells were stimulated with RebA (Purecircle) at 10 mM for indicating time points at 37° C. The cells were then fixed and processed for indirect immunofluorescence with antibodies against bitter receptor […]. All images were acquired with a 20× objective using ImageXpress Micro automated microscope. Hoechst 33342 staining is pseudo-colored blue and antibody specific staining is pseudo-colored green. […] The extent of internalization is expressed as the percentage (means±S.D.) of cells showing a continuous “Ring” staining from quadruplicate data points. Recycling of […] receptor correlates with decreased number of “Ring”-positive cells. Statistical analyses and graphs were made with Tibco Spotfire or GraphPad Prism.

| GLUT4 internalization ("Ring"-positive cells) (GLUT4) | T2R14 internalization ("Ring"-positive cells) (T2R14; FIG. 2) | T2R14 internalization ("Ring"-positive cells) (T2R14; FIG. 2, listed as Reb A) | SMILES |
| --- | --- | --- | --- |
| GLUT4 internalization increased | – | – | CC1=CC(=O)[N-]S(=O)(=O)O1.[K+] [Ace-K] |
| – | T2R14 internalization increases | induces T2R14 internalization | C=C1C[C@@]23CC[C@H]4[C@@](C)(CCC[C@@]4(C)C(=O)O[C@@H]4O[C@H](CO)[C@@H](O)[C@H](O)[C@H]4O)[C@@H]2CC[C@]1(O[C@@H]1O[C@H](CO)[C@@H](O)[C@H](O[C@@H]2O[C@H](CO)[C@@H](O)[C@H](O)[C@H]2O)[C@H]1O[C@@H]1O[C@H](CO)[C@@H](O)[C@H](O)[C@H]1O)C3 [RebA] |
| – | T2R14 internalization increases | – | C=C1C[C@@]23CC[C@H]4[C@@](C)(CCC[C@@]4(C)C(=O)O[C@@H]4O[C@H](CO)[C@@H](O)[C@H](O)[C@H]4O)[C@@H]2CC[C@]1(O[C@@H]1O[C@H](CO)[C@@H](O)[C@H](O[C@@H]2O[C@H](CO)[C@@H](O)[C@H](O)[C@H]2O)[C@H]1O[C@@H]1O[C@@H](C)[C@H](O)[C@@H](O)[C@H]1O)C3 [RebC] |
| – | internalization was not observed | – | C=C1C[C@@]23CC[C@H]4[C@@](C)(CCC[C@@]4(C)C(=O)O[C@@H]4O[C@H](CO)[C@@H](O)[C@H](O)[C@H]4O[C@@H]4O[C@H](CO)[C@@H](O)[C@H](O)[C@H]4O)[C@@H]2CC[C@]1(O[C@@H]1O[C@H](CO)[C@@H](O)[C@H](O[C@@H]2O[C@H](CO)[C@@H](O)[C@H](O)[C@H]2O)[C@H]1O[C@@H]1O[C@H](CO)[C@@H](O)[C@H](O)[C@H]1O)C3 [RebD] |
| GLUT4 internalization increased | – | – | COC(=O)[C@H](Cc1ccccc1)NC(=O)[C@@H](N)CC(=O)O [aspartame] (H-Asp-Phe-OMe) |
| GLUT4 internalization increased | – | – | O=C1NS(=O)(=O)c2ccccc21 [saccharine] |
